These results are taken from patent US12595230B2, “Substituted 6,7-dihydro-5H-benzo[7]annulene compounds and their derivatives, processes for their preparation and therapeutic uses thereof” (Sanofi, priority 2020, dated 2026).

The target of the assay is T1, ERα (Homo sapiens, UniProt P03372).
T1 construct: host or cells: MCF7
T1 sequence (P03372 1-595): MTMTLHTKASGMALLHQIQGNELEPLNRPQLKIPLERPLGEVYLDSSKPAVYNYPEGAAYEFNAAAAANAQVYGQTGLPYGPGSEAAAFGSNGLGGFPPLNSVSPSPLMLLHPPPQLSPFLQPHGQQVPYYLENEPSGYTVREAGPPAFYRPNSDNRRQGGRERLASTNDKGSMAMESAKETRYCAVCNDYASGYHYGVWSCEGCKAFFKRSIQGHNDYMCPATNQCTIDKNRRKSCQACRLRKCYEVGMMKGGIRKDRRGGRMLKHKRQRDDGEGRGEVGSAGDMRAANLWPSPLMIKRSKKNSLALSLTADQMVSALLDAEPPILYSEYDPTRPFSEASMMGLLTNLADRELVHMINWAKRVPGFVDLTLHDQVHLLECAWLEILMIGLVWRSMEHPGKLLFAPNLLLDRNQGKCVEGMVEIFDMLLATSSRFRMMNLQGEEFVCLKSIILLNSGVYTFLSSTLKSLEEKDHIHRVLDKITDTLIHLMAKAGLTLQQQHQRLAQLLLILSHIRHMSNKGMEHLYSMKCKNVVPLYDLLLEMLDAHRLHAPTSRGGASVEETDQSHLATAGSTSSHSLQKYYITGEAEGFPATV
The assay can be described thus: Estrogen receptor degradation activity: breast cancer cell ERα in cell western assay (MCF7 cells). The conditions noted are these: for % Degradation At 0.3 μM: 4 hours, relative to fulvestrant 0.1 μM positive control; for DC50: 4 hours post compound addition, concentration which degrades 50% of the estrogen receptor, read-out: Degradation IC50. The format is cell-based. As for the experimental part: Test: Estrogen Receptor Degradation Activity Said test involves measuring the in vitro degradation activity of the compounds of the Table 1a. The measurements of the degradation activities were made using a breast cancer cell ERα in cell western assay as described hereunder. MCF7 cells (ATCC) were seeded in 384 wells microplate (collagen coated) at a concentration of 10000 cells/30 μL per well in red phenol free MEM alpha medium (invitrogen) containing 5% charcoal dextran striped FBS. The following day, 9 points serial 1:5 dilution of each compound was added to the cells in 2.5p L at final concentrations ranging from 0.3-0.0000018 μM (in table 2), or 0.1 μM for fulvestrant (using as positive control). At 4 hours post compound addition the cells were fixed by adding 25 μL of formalin (final concentration 5% formalin containing 0.1% triton) for 10 minutes at room temperature and then washed twice with PBS. Then, 50 μL of LI-COR blocking buffer containing 0.1% Triton was added to plate for 30 minutes at room temperature. LI-COR blocking buffer was removed and cells were incubated overnight at cold room with 50 μL anti-ER rabbit monoclonal antibody (Thermo scientific MA1-39540) diluted at 1:1000 in LI-COR blocking buffer containing 0.1% tween-20. Wells which were treated with blocking buffer but no antibody were used as background control. Wells were washed twice with PBS (0.1% tween-20) and incubated at 37° C. for 60 minutes in LI-COR (0.1% tween-20) containing goat anti-rabbit antibody Alexa 488 (1:1000) and Syto-64 a DNA dye (2 μM final concentration). Cells were then washed 3 times in PBS and scanned in ACUMEN explorer (TTP-Labtech). Integrated intensities in the green fluorescence and red fluorescence were measured to determine the levels of ERα and DNA respectively. The degradation activity with respect to estrogen receptors in this test is given by the concentration which degrades 50% of the estrogen receptor (or IC50) in nM. […] DMSO−fulvestrant)).

Structures are written as SMILES.

Take `Cl.O=C(O)c1ccc2c(c1)CCCC(C1CCCC1)=C2c1ccc(CC2CN(CCCF)C2)cc1` [Example 6, 8-cyclopentyl-9-(4-((1-(3-fluoropropyl)azetidin-3-yl)methyl)phenyl)-6,7-dihydro-5H-benzo[7]annulene-3-carboxylic acid]: the “% Degradation At 0.3 μM” value is 82% and the DC50 was found to be 0.8 nM.
With `Cc1c(C2=C(c3ccc(CC4CN(CCC(F)(F)F)C4)cc3)c3ccc(C(=O)O)cc3CCC2)cccc1C(F)(F)F` [Example 256, 8-(2-methyl-3-(trifluoromethyl)phenyl)-9-(4-((1-(3,3,3-trifluoropropyl)azetidin-3-yl)methyl)phenyl)-6,7-dihydro-5H-benzo[7]annulene-3-carboxylic acid], the “% Degradation At 0.3 μM” value worked out at 82% and the DC50 worked out at 1 nM.
Take `O=C(O)c1ccc2c(c1)CCCC(c1ccc(Cl)cc1Cl)=C2c1ccc(CC2CN(CCC(F)(F)F)C2)cc1` [Example 261, 8-(2,4-dichlorophenyl)-9-(4-((1-(3,3,3-trifluoropropyl)azetidin-3-yl)methyl)phenyl)-6,7-dihydro-5H-benzo[7]annulene-3-carboxylic acid]: the “% Degradation At 0.3 μM” value was found to be 89% and the DC50 is 0.8 nM.
Turning to `O=C(O)c1ccc2c(c1)CCCC(c1ccc(Cl)cc1Cl)=C2c1ccc(CC2CN(CCCF)C2)cn1` [Example 253, 8-(2,4-dichlorophenyl)-9-(5-((1-(3-fluoropropyl)azetidin-3-yl)methyl)pyridin-2-yl)-6,7-dihydro-5H-benzo[7]annulene-3-carboxylic Acid], the “% Degradation At 0.3 μM” value amounted to 89% and the DC50 amounted to 4 nM.
Turning to `CCC(CC)CC1=C(c2ccc(CC3CN(CCCF)C3)cc2)c2ccc(C(=O)O)cc2CCC1` [Example 231, 8-(2-Ethylbutyl)-9-(4-((1-(3-fluoropropyl)azetidin-3-yl)methyl)phenyl)-6,7-dihydro-5H-benzo[7]annulene-3-carboxylic Acid], the “% Degradation At 0.3 μM” value came out at 83% and the DC50 is 0.3 nM.
The like results for `C[C@H]1CC[C@@H](C2=C(c3ccc(CC4CN(CCCF)C4)cc3)c3ccc(C(=O)O)cc3CCC2)CC1` [Example 14, 9-(4-((1-(3-fluoropropyl)azetidin-3-yl)methyl)phenyl)-8-((1s,4s)-4-methylcyclohexyl)-6,7-dihydro-5H-benzo[7]annulene-3-carboxylic acid] were, in that order, 80% and 0.8 nM.
In the case of `Cc1c(C2=C(c3ccc(CC4CN(CCCF)C4)cc3)c3ccc(C(=O)O)cc3CCC2C)cccc1C(F)(F)F` (racemic) [Example 310, 9-(4-((1-(3-fluoropropyl)azetidin-3-yl)methyl)phenyl)-7-methyl-8-(2-methyl-3-(trifluoromethyl)phenyl)-6,7-dihydro-5H-benzo[7]annulene-3-carboxylic acid], the “% Degradation At 0.3 μM” value was determined as 85% and the DC50 was determined as 0.4 nM.
For `COc1c(C(=O)O)ccc2c1CCCC(c1ccc(Cl)cc1Cl)=C2c1ccc(CC2CN(CCCF)C2)cc1` [Example 271, 8-(2,4-dichlorophenyl)-9-(4-((1-(3-fluoropropyl)azetidin-3-yl)methyl)phenyl)-4-methoxy-6,7-dihydro-5H-benzo[7]annulene-3-carboxylic acid], the “% Degradation At 0.3 μM” value is 83% and the DC50 was 16.2 nM.
With `Cc1cc(CC2CN(CCCF)C2)ccc1C1=C(c2ccc(Cl)cc2Cl)CCCc2cc(C(=O)O)ccc21` [Example 240, 8-(2,4-dichlorophenyl)-9-(4-((1-(3-fluoropropyl)azetidin-3-yl)methyl)-2-methylphenyl)-6,7-dihydro-5H-benzo[7]annulene-3-carboxylic acid], the “% Degradation At 0.3 μM” value turned out to be 85% and the DC50 stood at 0.5 nM.
For `Cl.[2H]C([2H])(CCF)N1CC(Cc2ccc(C3=C(c4ccc(Cl)cc4Cl)CCCc4cc(C(=O)O)ccc43)cc2)C1` [Example 208, 8-(2,4-dichlorophenyl)-9-(4-((1-(3-fluoropropyl-1,1-d2)azetidin-3-yl)methyl)phenyl)-6,7-dihydro-5H-benzo[7]annulene-3-carboxylic acid hydrochloride], the “% Degradation At 0.3 μM” value is 95% and the DC50 was determined as 0.2 nM.
Consider `O=C(O)c1ccc2c(c1)CCCC(c1ccc(F)c(CC(F)(F)F)c1)=C2c1ccc(CC2CN(CCCF)C2)cc1` [Example 290, 8-(4-fluoro-3-(2,2,2-trifluoroethyl)phenyl)-9-(4-((1-(3-fluoropropyl)azetidin-3-yl)methyl)phenyl)-6,7-dihydro-5H-benzo[7]annulene-3-carboxylic acid], for which the “% Degradation At 0.3 μM” value stood at 84% and the DC50 was found to be 0.8 nM.
As to `O=C(O)c1ccc2c(c1)CCCC(C1CC3CCC(C3)C1)=C2c1ccc(CC2CN(CCCF)C2)cc1` (centres unmarked) [Example 316, 8-(bicyclo[3.2.1]octan-3-yl)-9-(4-((1-(3-fluoropropyl)azetidin-3-yl)methyl)phenyl)-6,7-dihydro-5H-benzo[7]annulene-3-carboxylic acid], the “% Degradation At 0.3 μM” value is 81% and the DC50 was 1.2 nM.
Regarding `O=C(O)c1ccc2c(c1)CCCC(c1ccc(F)cc1C(F)(F)F)=C2c1ccc(CC2CN(CCC(F)(F)F)C2)cc1` [Example 258, 8-(4-fluoro-2-(trifluoromethyl)phenyl)-9-(4-((1-(3,3,3-trifluoropropyl)azetidin-3-yl)methyl)phenyl)-6,7-dihydro-5H-benzo[7]annulene-3-carboxylic acid], the “% Degradation At 0.3 μM” value was 87% and the DC50 was found to be 0.8 nM.
In the case of `O=C(O)c1ccc2c(c1)CCCC([C@@H]1C[C@H]1C1CCC(F)(F)CC1)=C2c1ccc(CC2CN(CCCF)C2)cc1` [Example 331, 8-((1R,2S)-2-(4,4-difluorocyclohexyl)cyclopropyl)-9-(4-((1-(3-fluoropropyl)azetidin-3-yl)methyl)phenyl)-6,7-dihydro-5H-benzo[7]annulene-3-carboxylic acid], the “% Degradation At 0.3 μM” value amounted to 77% and the DC50 came to 10.7 nM.
As for `O=C(O)c1ccc2c(c1)CCCC(c1cccc(Cl)c1C(F)(F)F)=C2c1ccc(CC2CN(CCC(F)F)C2)cc1` [Example 280, 8-(3-chloro-2-(trifluoromethyl)phenyl)-9-(4-((1-(3,3-difluoropropyl)azetidin-3-yl)methyl)phenyl)-6,7-dihydro-5H-benzo[7]annulene-3-carboxylic acid], the “% Degradation At 0.3 μM” value is recorded as 86% and the DC50 was 0.3 nM.
With `O=C(O)c1ccc2c(c1)CCCC(c1ccc(F)cc1C(F)(F)F)=C2c1ccc(CC2(F)CN(CCCF)C2)cc1` [Example 241, 9-(4-((3-fluoro-1-(3-fluoropropyl)azetidin-3-yl)methyl)phenyl)-8-(4-fluoro-2-(trifluoromethyl)phenyl)-6,7-dihydro-5H-benzo[7]annulene-3-carboxylic acid], the “% Degradation At 0.3 μM” value came out at 92% and the DC50 was determined as 3.7 nM.
The like results for `O=C(O)c1ccc2c(c1)CCCC(c1cccc(C(F)(F)F)c1Cl)=C2c1ccc(CC2CN(CCC(F)F)C2)cc1` [Example 286, 8-(2-chloro-3-(trifluoromethyl)phenyl)-9-(4-((1-(3,3-difluoropropyl)azetidin-3-yl)methyl)phenyl)-6,7-dihydro-5H-benzo[7]annulene-3-carboxylic acid] were, in that order, 88% and 0.3 nM.
On to `CC1CCc2cc(C(=O)O)ccc2C(c2ccc(CC3CN(CCCF)C3)cc2)=C1c1ccc(Cl)cc1Cl` (single isomer, unassigned) [Example 302, 8-(2,4-dichlorophenyl)-9-(4-((1-(3-fluoropropyl)azetidin-3-yl)methyl)phenyl)-7-methyl-6,7-dihydro-5H-benzo[7]annulene-3-carboxylic acid], for which the “% Degradation At 0.3 μM” value came out at 90% and the DC50 amounted to 0.6 nM.
The like results for `O=C(O)c1c(F)cc2c(c1F)CCCC(c1ccccc1Cl)=C2c1ccc(CC2CN(CCCF)C2)cc1` [Example 224] were, in that order, 82% and 43 nM.
